# Measurements as given in US20140086890A1, “COMPOSITIONS AND METHODS FOR TREATING HYPERPROLIFERATIVE DISORDERS” (priority 2004, published 2014).
# Tests used:
# [1] = tested on: MIC-A/B; assay: MIC-A/B expression by flow cytometry; format: cell-based, human; conditions: Depsipeptide 25 ng/ml or Velcade 10 nM, 6-40 hours
# [2] = tested on: tumors; conditions: mouse, in vivo; cited from earlier work
# [3] = tested on: RCC cell lines (JOHW, SAUJ, STAR, RENCA); assay: apoptosis by Annexin-V and 7-AAD staining; format: cell-based, human and murine; conditions: Depsipeptide 25 ng/ml or Velcade 10 nM, 6-40 hours
# Experimental: (§1) Level of apoptosis was evaluated by Annexin-V and 7-AAD staining (upper left chart). Expression of MHC class I was evaluated by flow cytometry by HLA-ABC for human RCC and H-2Dd/Kd for murine RCC (lower left chart). […] Cells were labeled with ^3H thymidine for analysis of proliferation (upper right chart).
# [4] = tested on: human and murine RCC; assay: 3H thymidine proliferation; format: cell-based; conditions: various concentrations, 72 hours
# Experimental: as §1
# [5] = tested on: MHC class I; assay: MHC class I expression by flow cytometry; format: cell-based, human and murine; conditions: Depsipeptide 25 ng/ml or Velcade 10 nM, 6-40 hours
# Experimental: as §1
# [6] = tested on: human RCC cell lines (JOHW, PORJC, SAUJ and STAR); format: cell-based
# Experimental: (§2) Cells were then plated in a 96-well plate at 4,000 cell/well. Recombinant TRAIL [75-300 ng/ml] or recombinant Fas-ligand [12.5-100 ng/ml] was added to the cells and supernatant was harvested after 16 hours incubation. The level of lysis by TRAIL and Fas-ligand were calculated based on spontaneous and maximum ^51Cr release.
# [7] = tested on: human renal cell carcinoma (RCC) cell lines JOHW, SAUJ, STAR; assay: NK cell susceptibility assay of pre-sensitized human RCC cell lines; format: cell-based; conditions: for autologous NK cell susceptibility of human RCC SAUJ or STAR (FIG. 11): 24 hours, 25 ng/ml Depsipeptide or 10 nM Velcade; for allogeneic NK cell susceptibility of human RCC (FIG. 9) / autologous NK cell susceptibility of human RCC (FIG. 10): JOHW, 10 nM Velcade or 25 ng/ml Depsipeptide, 40 hours, 4 hour assay
# Experimental: Cells were thereafter labeled with ^51Cr for 1 hour and tested for susceptibility to allogeneic NK cell mediated lysis in a standard 4 hour assay.
# Cells were thereafter labeled with ^51Cr for 1 hour and tested for susceptibility to autologous NK cell mediated lysis in a standard 4 hour assay.
# Thereafter, the tumor cells were tested for NK cell susceptibility in a standard cytotoxicity assay. Autologous NK cells were purified from peripheral blood by negative magnetic bead depletion of T cells, B cells, monocytes and granulocytes. NK cell purity was evaluated by CD56 and CD3 staining by flow cytometry. Purity of NK cells was always between 90-100%.
# [8] = tested on: MIC-A/B; conditions: cited from earlier work
# [9] = tested on: human RCC cell lines (JOHW, PORJC, SAUJ and STAR); format: cell-based; remark: listed apart in the source
# Experimental: as §2
# [10] = tested on: RENCA tumor cells; assay: NK cell susceptibility assay of pre-sensitized RENCA tumor cells; format: cell-based, murine; conditions: for NK cell susceptibility of RENCA (FIG. 8): 14 hours, 10 nM Velcade or 25 ng/ml Depsipeptide, autologous Balb/c NK cells, 4 hour assay; for susceptibility of RENCA tumor cells to NK cell mediated lysis (FIG. 7): pretreated 40 hours, Depsipeptide 25 ng/ml or Velcade 10 nM, NK cells from B10.d2 mouse
# Experimental: Thereafter, the tumor cells were tested for NK cell susceptibility in a standard cytotoxicity assay. NK cells were purified from splenocytes from a B 10.d2 mouse by negative magnetic bead depletion of T cells, B cells, monocytes and granulocytes. NK cell purity was evaluated by DX5 and CD3 staining by flow cytometry. Purity of NK cells was always between 90-100%.
# Cells were thereafter labeled with ^51Cr for 1 hour and tested for susceptibility to NK cell mediated lysis in a standard 4 hour assay. Murine autologous Balb/c NK cells tested against untreated (squares), Velcade (circles) or Depsipeptide (triangles) treated RENCA cell lines (Balb/c in origin).
# [11] = tested on: HDAC; conditions: cited from earlier work
# [12] = tested on: neoplastic cells; conditions: by reducing levels of c-FLIP; cited from earlier work
# [13] = while retaining graft-versus-tumor effects; cited from earlier work
Compound,MIC-A/B expression of human RCC (FIG. 15) [1],anti-tumor effects: cell growth and formation of tumors in mice models [2],viability (apoptosis) of RCC cell lines (FIG. 15) [3],proliferation of RCC cell lines (FIG. 15) [4],MHC Class I expression of RCC cell lines (FIG. 15) [5],cell lysis of presensitized RCC cells by Fas ligand (FIG. 14) [6],autologous NK cell susceptibility of human RCC SAUJ or STAR (FIG. 11) [7],allogeneic NK cell susceptibility of human RCC (FIG. 9) [7],autologous NK cell susceptibility of human RCC (FIG. 10) [7],MIC-A/B upon treatment [8],cell lysis of presensitized RCC cells by TRAIL (FIG. 13) [9],NK cell susceptibility of RENCA (FIG. 8) [10],susceptibility of RENCA tumor cells to NK cell mediated lysis (FIG. 7) [10],concentrations at which HDAC activity is inhibited [11],sensitization of neoplastic cells to TRAIL-mediated apoptosis [12],acute graft-versus-host disease [13]
C/C=C1\NC(=O)[C@H]2CSSCC/C=C/[C@H](CC(=O)N[C@H](C(C)C)C(=O)N2)OC(=O)[C@H](C(C)C)NC1=O [Depsipeptide],no differences,anti-tumor effects,no differences,no differences,no differences,Increased cell lysis,enhanced autologous NK cell susceptibility,enhanced allogeneic NK cell susceptibility,enhanced autologous NK cell susceptibility,induction,Increased cell lysis,enhanced NK cell susceptibility,more susceptible,–,–,–
C/C=C1\NC(=O)[C@H]2CSSCC/C=C/[C@H](CC(=O)N[C@H](C(C)C)C(=O)N2)OC(=O)[C@H](C(C)C)NC1=O [FR901228],–,–,–,–,–,–,–,–,–,–,–,–,–,micromolar concentrations,–,–
CC(C)C[C@H](NC(=O)[C@H](Cc1ccccc1)NC(=O)c1cnccn1)B(O)O [PS-341],–,–,–,–,–,–,–,–,–,–,–,–,–,–,sensitizes,–
CC(C)C[C@H](NC(=O)[C@H](Cc1ccccc1)NC(=O)c1cnccn1)B(O)O [Velcade],–,–,no differences,no differences,no differences,–,enhanced autologous NK cell susceptibility,enhanced allogeneic NK cell susceptibility,enhanced autologous NK cell susceptibility,–,–,enhanced NK cell susceptibility,more susceptible,–,–,inhibits
